The results in this text go back to patent US11026427B2, “Microbiocidal oxadiazole derivatives” (SYNGENTA PARTICIPATIONS AG, priority 2016, dated 2021).

Series [1] concerns Puccinia recondita f. Sp. tritici. The series can be described thus: Puccinia recondita f. sp. tritici / wheat / leaf disc preventative (brown rust). The format is in vivo. The note with it: foliar, 200 ppm in the applied formulation, compared to untreated control, read-out: disease control. An outline of the steps: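 Wheat leaf segments (cv. Kanzler) on water agar were sprayed with test compound (DMSO stock diluted in 0.025% Tween20/water), then spore-inoculated 1 day later. Incubation at 19° C., 75% rh, 12 h light/12 h dark; percent disease control versus untreated segments scored 7 to 9 days after application. Tested at 200 ppm.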

The next series deals with Phakopsora pachyrhizi. The series can be described thus: Phakopsora pachyrhizi / soybean / leaf disc preventative (Asian soybean rust). It is filed as in vivo. The note with it: foliar, 200 ppm in the applied formulation, compared to untreated control, read-out: disease control. An outline of the steps: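 Read-out is percent disease control relative to untreated check discs, assessed once untreated discs show adequate disease, 12 to 14 days after application. Compounds, tested at 200 ppm in the applied formulation, are sprayed onto soybean leaf discs one day before inoculation with a spore suspension.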

The subject of series [2] is Glomerella lacenarium (Colletotrichum lacenarium). The series can be described thus: Glomerella lacenarium (Colletotrichum lacenarium) liquid culture / cucumber / preventative (anthracnose). The format is cell-based. The note with it: 20 ppm in the applied formulation, growth inhibition measured photometrically, compared to untreated control, read-out: disease control. An outline of the steps:
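Photometric measurement of fungal growth inhibition 3 to 4 days after application gives percent activity relative to untreated check. Conidia were suspended in potato dextrose broth and combined with DMSO compound solutions; incubation at 24° C.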

For series [3], the system named is Puccinia recondita f. Sp. tritici. The series can be described thus: Puccinia recondita f. sp. tritici / wheat / leaf disc curative (brown rust). It is filed as in vivo. The note with it: foliar, 200 ppm in the applied formulation, compared to untreated control, read-out: disease control. An outline of the steps:
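Read-out is percent disease control relative to untreated segments, assessed 6 to 8 days after treatment once check disease is adequate. Kanzler wheat leaf segments on agar receive fungal spores, then test compound (DMSO stock diluted in 0.025% Tween20 or water) 1 day later, under 19° C and 75% relative humidity.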

The subject of a further series is Uromyces viciae-fabae. The series can be described thus: Uromyces viciae-fabae / field bean / leaf disc preventative (faba-bean rust). The format is in vivo. The settings on record: foliar, 288 h, 100 ppm in the applied formulation, compared to untreated control, read-out: disease control. Here is the method:
Leaf disks or leaf segments of various plant species are cut from plants grown in a greenhouse. The cut leaf disks or segments are placed in multiwell plates (24-well format) onto water agar. The leaf disks are sprayed with a test solution before (preventative) or after (curative) inoculation. Compounds to be tested are prepared as DMSO solutions (max. 10 mg/ml) which are diluted to the appropriate concentration with 0.025% Tween20 just before spraying. The inoculated leaf disks or segments are incubated under defined conditions (temperature, relative humidity, light, etc.) according to the respective test system. A single evaluation of disease level is carried out 3 to 14 days after inoculation, depending on the pathosystem. Percent disease control relative to the untreated check leaf disks or segments is then calculated.
Field bean leaf discs are placed on water agar in multiwell plates (96-well format) and 10 μl of the formulated test compound diluted in acetone and a spreader pipetted onto the leaf disc. Two hours after application leaf discs are inoculated by spraying a spore suspension on the lower leaf surface. The leaf discs are incubated in a climate cabinet at 22° C. with 18 hour day and 70% relative humidity. The activity of a compound is assessed as percent disease control compared to untreated when an appropriate level of disease damage appears in untreated check leaf disks (12 days after application).
The following compounds at 100 ppm in the applied formulation give at least 80% disease control in this test when compared to untreated control leaf discs under the same conditions, which show extensive disease development.

Bounds are passed on as bounds.

In the case of `CC#CC(O)c1ccc(-c2noc(C(F)(F)F)n2)cc1` (stereo not shown) [Compound 2.6, 1-[4-[5-(trifluoromethyl)-1,2,4-oxadiazol-3-yl]phenyl]but-2-yn-1-ol], the melting point lay in the range of 93 to 96 °C. Further, in series [1], the pest or weed control at 200 ppm was no less than 80%. Also, the pest or weed control at 200 ppm in the series on Phakopsora pachyrhizi was no less than 80%. For the same molecule, in series [2], the inhibition of growth at 20 ppm is no less than 80%. For the same molecule, in series [3], the pest or weed control at 200 ppm is no less than 80%. Further, the pest or weed control at 100 ppm with Uromyces viciae-fabae is no less than 80%.
In turn, `OC(c1ccccc1)c1ccc(-c2noc(C(F)(F)F)n2)cc1` (stereo not shown) [Compound 2.2, phenyl-[4-[5-(trifluoromethyl)-1,2,4-oxadiazol-3-yl]phenyl]methanol] came in with a melting point of 63 to 69 °C. For the same molecule, the pest or weed control at 200 ppm in series [1] is no less than 80%. Moreover, the pest or weed control at 200 ppm in the series with Phakopsora pachyrhizi is no less than 80%. Further, the inhibition of growth at 20 ppm in series [2] was no less than 80%. Further, in the series on Uromyces viciae-fabae, the pest or weed control at 100 ppm was no less than 80%.
Molecule `O=C(c1ccccc1)c1ccc(-c2noc(C(F)(F)F)n2)cc1` [Compound 1.3, phenyl-[4-[5-(trifluoromethyl)-1,2,4-oxadiazol-3-yl]phenyl]methanone] yielded a melting point of 110 to 115 °C. The pest or weed control at 200 ppm with Phakopsora pachyrhizi was no less than 80%. The inhibition of growth at 20 ppm in series [2] was no less than 80%. In addition, the pest or weed control at 100 ppm with Uromyces viciae-fabae was no less than 80%.
For `Cc1ccsc1C(=O)c1ccc(-c2noc(C(F)(F)F)n2)cc1` [Compound 1.12, (3-methyl-2-thienyl)-[4-[5-(trifluoromethyl)-1,2,4-oxadiazol-3-yl]phenyl]methanone], the pest or weed control at 200 ppm in the series on Phakopsora pachyrhizi is no less than 80%. For the same molecule, in series [2], the inhibition of growth at 20 ppm is no less than 80%. In addition, the pest or weed control at 100 ppm in the series on Uromyces viciae-fabae was no less than 80%.
On to `O=C(c1ccc(F)cc1)c1ccc(-c2noc(C(F)(F)F)n2)cc1` [Compound 1.1, (4-fluorophenyl)-[4-[5-(trifluoromethyl)-1,2,4-oxadiazol-3-yl]phenyl]methanone], for which the melting point was in the range of 125 to 135 °C. Also, the pest or weed control at 200 ppm in the series on Phakopsora pachyrhizi was no less than 80%. Also, the pest or weed control at 100 ppm in the series on Uromyces viciae-fabae was no less than 80%.
Consider `Cc1ccsc1C(O)c1ccc(-c2noc(C(F)(F)F)n2)cc1` (stereo not shown) [Compound 2.10, (3-methyl-2-thienyl)-[4-[5-(trifluoromethyl)-1,2,4-oxadiazol-3-yl]phenyl]methanol], for which the melting point was 68 to 73 °C. Moreover, the pest or weed control at 200 ppm in the series on Phakopsora pachyrhizi was no less than 80%. In addition, the inhibition of growth at 20 ppm in series [2] is no less than 80%. In the series on Uromyces viciae-fabae, the pest or weed control at 100 ppm is no less than 80%.
As for `C=C(C)C(O)c1ccc(-c2noc(C(F)(F)F)n2)cc1` (stereo not shown) [Compound 2.8, 2-methyl-1-[4-[5-(trifluoromethyl)-1,2,4-oxadiazol-3-yl]phenyl]prop-2-en-1-ol], in the series with Phakopsora pachyrhizi, the pest or weed control at 200 ppm is no less than 80%. Moreover, in series [2], the inhibition of growth at 20 ppm is no less than 80%. In addition, the pest or weed control at 100 ppm in the series with Uromyces viciae-fabae was no less than 80%.
Regarding `C/C=C/CC(=O)c1ccc(-c2noc(C(F)(F)F)n2)cc1` [Compound 1.11, 1-[4-[5-(trifluoromethyl)-1,2,4-oxadiazol-3-yl]phenyl]pent-3-en-1-one], in the series with Phakopsora pachyrhizi, the pest or weed control at 200 ppm was no less than 80%. Besides, the inhibition of growth at 20 ppm in series [2] is no less than 80%. Also, the pest or weed control at 100 ppm with Uromyces viciae-fabae is no less than 80%.

For orientation: melting point means the temperature, or range, at which the solid turns liquid.
